Data taken from US20060148838A1, “Novel pyrrolodihydroisoquinolines useful in the treatment of cancer” (Altana Pharma AG, priority 2003, published 2006).

system: not given; assay: not given; settings: not given

SMILES | melting point [°C]
CCOC(=O)c1c(-c2cc(C)c(O)c(C)c2)c(C)n2c1-c1cc(OC)c(OC)cc1C(C)(C)C2 [Example 1, 2-(4-hydroxy-3,5-dimethyl-phenyl)-8,9-dimethoxy-3,6,6-trimethyl-5,6-dihydro-pyrrolo[2,1-a]isoquinoline-1-carboxylic acid ethyl ester] | 200 to 202
CCOC(=O)c1c(-c2cccc(N(C)C)c2)c(C)n2c1-c1cc(OC(F)F)c(OC)cc1CC2 [Example 4, 9-(1,1-Difluoro-methoxy)-2-(3-dimethylamino-phenyl)-8-methoxy-3-methyl-5,6-dihydro-pyrrolo[2,1-a]isoquinoline-1-carboxylic acid ethyl ester] | 107 to 110
CCOC(=O)c1c(-c2cc(C)c(O)c(C)c2)c(C)n2c1-c1cc(OC(F)F)c(OC)cc1CC2 [Example 5, 9-(1,1-Difluoro-methoxy)-2-(4-hydroxy-3,5-dimethyl-phenyl)-8-methoxy-3-methyl-5,6-dihydro-pyrrolo[2,1-a]isoquinoline-1-carboxylic acid ethyl ester] | 152 to 155
CCOC(=O)c1c(-c2cc(C)c(O)c(C)c2)c(C)n2c1-c1c(cc(OC)c(OC)c1OC)CC2 [Example 7, 2-(4-Hydroxy-3,5-dimethyl-phenyl)-8,9,10-trimethoxy-3-methyl-5,6-dihydro-pyrrolo[2,1-a]isoquinoline-1-carboxylic acid ethyl ester] | 246 to 251
CCOC(=O)c1c(-c2cc(OC)c(OC)c(OC)c2)c(C)n2c1-c1cc(OC)c(OC(F)F)cc1CC2 [Example 8, 8-(1,1-Difluoro-methoxy)-9-methoxy-3-methyl-2-(3,4,5-trimethoxy-phenyl)-5,6-dihydro-pyrrolo[2,1-a]isoquinoline-1-carboxylic acid ethyl ester] | 155
CCOC(=O)c1c(-c2cc(OC)c(OC)c(OC)c2)c(C)n2c1-c1cc(Cl)c(OC)cc1CC2 [Example 15, 9-Chloro-8-methoxy-3-methyl-2-(3,4,5-trimethoxy-phenyl)-5,6-dihydro-pyrrolo[2,1-a]isoquinoline-1-carboxylic acid ethyl ester] | 172 to 174
CCOC(=O)c1c(-c2cc(C)c(O)c(C)c2)c(C)n2c1-c1cc(OC)c(Cl)cc1CC2 [Example 17, 8-Chloro-2-(4-hydroxy-3,5-dimethyl-phenyl)-9-methoxy-3-methyl-5,6-dihydro-pyrrolo[2,1-a]isoquinoline-1-carboxylic acid ethyl ester] | 167 to 169
CCOC(=O)c1c(-c2cc(OC)c(OC)c(OC)c2)c(C)n2c1-c1cc(OC)c(OCCOC)cc1CC2 [Example 19, 9-Methoxy-8-(2-methoxy-ethoxy)-3-methyl-2-(3,4,5-trimethoxy-phenyl)-5,6-dihydro-pyrrolo[2,1-a]isoquinoline-1-carboxylic acid ethyl ester] | 152 to 154
CCOC(=O)c1c(-c2cc(C)c(O)c(C)c2)c(C)n2c1-c1cc(C)c(OC)cc1CC2 [Example 23, 2-(4-Hydroxy-3,5-dimethyl-phenyl)-8-methoxy-3,9-dimethyl-5,6-dihydro-pyrrolo[2,1-a]isoquinoline-1-carboxylic acid ethyl ester] | 179 to 181
COc1cc2c(cc1OC)-c1c(C(=O)c3ccccc3)c(-c3cc(C)c(O)c(C)c3)c(C)n1CC2 [Example 26, 1-[2-(4-hydroxy-3,5-dimethyl-phenyl)-8,9-dimethoxy-3-methyl-5,6-dihydro-pyrrolo[2,1-a]isoquinolin-1-yl]-1-phenyl-methanone] | 194 to 196
COc1cc2c(cc1OC)-c1c(-c3ccccc3)c(-c3cc(C)c(O)c(C)c3)c(C)n1CC2 [Example 27, 4-(8,9-Dimethoxy-3-methyl-1-phenyl-5,6-dihydro-pyrrolo[2,1-a]isoquinolin-2-yl)-2,6-dimethyl-phenol] | 210 to 214
COc1cc2c(cc1OC)-c1c(C(=O)N(C)C)c(-c3cc(C)c(O)c(C)c3)c(C)n1CC2 [Example 31, 2-(4-Hydroxy-3,5-dimethyl-phenyl)-8,9-dimethoxy-3-methyl-5,6-dihydro-pyrrolo[2,1-a]isoquinoline-1-carboxylic acid dimethylamide] | 259 to 261
CNC(=O)c1c(-c2cc(C)c(O)c(C)c2)c(C)n2c1-c1cc(OC)c(OC)cc1CC2 [Example 32, 2-(4-Hydroxy-3,5-dimethyl-phenyl)-8,9-dimethoxy-3-methyl-5,6-dihydro-pyrrolo[2,1-a]isoquinoline-1-carboxylic acid methylamide] | 281 to 283
COc1cc2c(cc1OC)-c1c(C(N)=O)c(-c3cc(C)c(O)c(C)c3)c(C)n1CC2 [Example 33, 2-(4-Hydroxy-3,5-dimethyl-phenyl)-8,9-dimethoxy-3-methyl-5,6-dihydro-pyrrolo[2,1-a]isoquinoline-1-carboxylic acid amide] | 229 to 231
CCNC(=O)c1c(-c2cc(C)c(O)c(C)c2)c(C)n2c1-c1cc(OC)c(OC)cc1CC2 [Example 35, 2-(4-Hydroxy-3,5-dimethyl-phenyl)-8,9-dimethoxy-3-methyl-5,6-dihydro-pyrrolo[2,1-a]isoquinoline-1-carboxylic acid ethylamide] | 242 to 244
COc1cc2c(cc1OC)-c1c(C(=O)NC3CC3)c(-c3cc(C)c(O)c(C)c3)c(C)n1CC2 [Example 37, 2-(4-Hydroxy-3,5-dimethyl-phenyl)-8,9-dimethoxy-3-methyl-5,6-dihydro-pyrrolo[2,1-a]isoquinoline-1-carboxylic acid cyclopropylamide] | 254 to 256

system: NCl-H460 non-small cell lung cancer cells; assay: Alamar Blue cell viability assay, anti-proliferative/cytotoxic activity; format: cell-based; settings: 72 hours incubation, one range stated for all listed Examples, read-out: −log IC50 NCl-H460 (converted)
Experimental: The anti-proliferative/cytotoxic activity of the compounds described herein, can be tested on NCl-H460 non-small cell lung cancer cells using the Alamar Blue cell viability assay (described in O'Brien et al. Eur J Biochem 267, 5421-5426, 2000). The compounds are dissolved as 20 mM solutions in dimethylsulfoxide (DMSO) and subsequently diluted in semi-logarithmic steps. DMSO dilutions are further diluted 1:100 into Dulbecco's modified Eagle's medium (DMEM) containing 10% fetal calf serum to a final concentration twice as much as the final concentration in the test. NCl-460 cells are seeded into 96 well flat bottom plates at a density of 4000 cells per well in a volume of 50 μl per well. 24 hours after seeding the 50 μl each of the compound dilutions in DMEM medium are added into each well of the 96 Well plate. Each compound dilution is tested as quadruplicates. Wells containing untreated control cells are filled with 50 μl DMEM medium containing 1% DMSO. The cells are then incubated with the substances for 72 hours at 37° C. In a humified atmosphere containing 5% carbon dioxide. To determine the viability of the cells, 10 μl of an Alamar Blue solution (Biosource) are added and the fluorescence is measured at an extinction of 544 nm and an emission of 590 nm. For the calculation of cell viability the emission value from untreated cells is set to 100% viability and the emission rates of treated cells are set in relation to the values of untreated cells. Viabilities are expressed as % values.
The corresponding IC50 values of the compounds for anti-proliferative/cytotoxic activity are determined from the concentration-effect curves.
Representative advantageous IC50 values for anti-proliferation/cytotoxicity determined for the compounds mentioned and numbered as Examples in the examples above follow from the following table A, in which the numbers of the compound correspond to the numbers of the examples.

SMILES | IC50 [nM]
CCOC(=O)c1c(-c2cc(C)c(O)c(C)c2)c(C)n2c1-c1cc(OC)c(OC)cc1C(C)C2 (racemic) [Example 2, (6RS)-2-(4-Hydroxy-3,5-dimethyl-phenyl)-8,9-dimethoxy-3,6-dimethyl-5,6-dihydro-pyrrolo[2,1-a]isoquinoline-1-carboxylic acid ethyl ester] | 398 to 3160
CCOC(=O)c1c(-c2cc(C)c(O)c(C)c2)c(C)n2c1-c1cc(OC)c(OC)cc1C(C)(C)C2 [Example 1, 2-(4-hydroxy-3,5-dimethyl-phenyl)-8,9-dimethoxy-3,6,6-trimethyl-5,6-dihydro-pyrrolo[2,1-a]isoquinoline-1-carboxylic acid ethyl ester] | 398 to 3160
CCOC(=O)c1c(-c2cccc(N(C)C)c2)c(C)n2c1-c1cc(OC(F)F)c(OC)cc1CC2 [Example 4, 9-(1,1-Difluoro-methoxy)-2-(3-dimethylamino-phenyl)-8-methoxy-3-methyl-5,6-dihydro-pyrrolo[2,1-a]isoquinoline-1-carboxylic acid ethyl ester] | 398 to 3160
CCOC(=O)c1c(-c2cc(C)c(O)c(C)c2)c(C)n2c1-c1cc(OC(F)F)c(OC)cc1CC2 [Example 5, 9-(1,1-Difluoro-methoxy)-2-(4-hydroxy-3,5-dimethyl-phenyl)-8-methoxy-3-methyl-5,6-dihydro-pyrrolo[2,1-a]isoquinoline-1-carboxylic acid ethyl ester] | 398 to 3160
CCOC(=O)c1c(-c2cccc(N(C)C)c2)c(C)n2c1-c1cc(OC)c(OC(F)F)cc1CC2 [Example 10, 8-(1,1-Difluoro-methoxy)-2-(3-dimethylamino-phenyl)-9-methoxy-3-methyl-5,6-dihydro-pyrrolo[2,1-a]isoquinoline-1-carboxylic acid ethyl ester] | 398 to 3160
CCOC(=O)c1c(-c2cccc(N(C)C)c2)c(C)n2c1-c1cc(Cl)c(OC)cc1CC2 [Example 16, 9-Chloro-2-(3-dimethylamino-phenyl)-8-methoxy-3-methyl-5,6-dihydro-pyrrolo[2,1-a]isoquinoline-1-carboxylic acid ethyl ester] | 398 to 3160
CCOC(=O)c1c(-c2cc(C)c(O)c(C)c2)c(C)n2c1-c1cc(F)c(OC)cc1CC2 [Example 21, 9-Fluoro-2-(4-hydroxy-3,5-dimethyl-phenyl)-8-methoxy-3-methyl-5,6-dihydro-pyrrolo[2,1-a]isoquinoline-1-carboxylic acid ethyl ester] | 398 to 3160
COc1cc2c(cc1OC)-c1c(C(=O)NC(C)C)c(-c3cc(C)c(O)c(C)c3)c(C)n1CC2 [Example 30, 2-(4-Hydroxy-3,5-dimethyl-phenyl)-8,9-dimethoxy-3-methyl-5,6-dihydro-pyrrolo[2,1-a]isoquinoline-1-carboxylic acid isopropylamide] | 398 to 3160
